Test results published in patent US20210221834A1, “SWEETENER AND SWEETENED COMPOSITIONS INCORPORATING REBAUDOSIDE N” (CARGILL, INCORPORATED, priority 2013, published 2021).
Entries after “also recorded” stand apart in the source; their conditions may differ.

Legend:
Assay type in all cases: in vivo, human
[1] = Sensory evaluation of Reb A, Reb D and Reb N solutions in water (Example 2); parameters: key to Bitterness: 1 = none; 2 = trace; 3 = faint; 4 = mild; 5 = moderate; 6 = definite; 7 = strong; 8 = very strong; 9 = extreme; settings: 500 ppm (wt/wt) in water, room temperature; for Sweetness Intensity (percent sucrose equivalent sweetness): two scientists, sucrose standards 6%, 7%, 8%; for Bitterness: intensity scale 1-9
Method: Solutions containing 500 ppm (wt/wt) of RebA, RebD and RebN, respectively, in water were prepared and evaluated at room temperature by two scientists with training and experience in the sensory evaluation of steviol glycosides. The samples were evaluated for sweetness intensity and other qualitative attributes. A set of sucrose standards were prepared by dissolving sugar into room temperature water (6%, 7%, 8% by weight) and used as references for sweetness intensity.

[2] = Sensory evaluation in citric/citrate buffer at pH 3.2 (Example 4); parameters: key to Bitterness intensity: 0=none; 1=trace; 2=faint; 3=slight; 4=mild; 5=moderate; 6=definite; 7=strong; 8=very strong; 9=extreme
Method: Method: Solutions containing 600 ppm (wt/wt) Reb A or blends of Reb A, Reb B and Reb N in citric/citrate buffer at pH 3.2 were prepared and evaluated at room temperature by three scientists with training and experience in the sensory evaluation of steviol glycosides. The samples were evaluated for sweetness intensity and other qualitative attributes.

[3] = Sensory evaluation of 4-way blend in deionized water (Example 5); parameters: key to Bitterness / Licorice note: 0=none; 1=trace; 2=faint; 3=slight; 4=mild; 5=moderate; 6=definite; 7=strong; 8=very strong; 9=extreme; settings: 500 ppm in deionized water
Method: Method: Solutions containing 500 ppm Reb A or blends of RebA, RebB, RebD and RebN were prepared in deionized water and evaluated at room temperature by three scientists with training and experience in the sensory evaluation of steviol glycosides. The samples were evaluated for sweetness intensity and other qualitative attributes.

[4] = Sensory evaluation of three-way blends of reb A, reb B and reb N in water (Example 3); settings: 500 ppm (wt/wt) in water, room temperature
Method: Solutions containing 500 ppm (wt/wt) of blends of reb A, reb B, and reb N in water were prepared and evaluated at room temperature by five scientists with training and experience in the sensory evaluation of steviol glycosides. The samples were evaluated for sweetness intensity and other qualitative attributes and compared against Reb A. The results are shown in the following table: […]

[5] = 600 ppm (wt/wt) in citric/citrate buffer pH 3.2

SMILES	Other Sweetness Quality [1]	Sweetness Linger [1]	Sweetness Onset [1]	Sweetness Intensity (percent sucrose equivalent sweetness) [1]	Bitterness [1]	Bitter onset [2, 5]	Licorice [2, 5]	Lingering bitterness [2, 5]	Sweet profile [2, 5]	Sucrose equivalent sweetness ([2]; 600 ppm (wt/wt) in citric/citrate buffer pH 3.2, room temperature, three scientists)	Bitterness intensity ([2]; 600 ppm (wt/wt) in citric/citrate buffer pH 3.2, intensity scale 0-9)	Lingering bitter aftertaste [3]	Sucrose equivalent sweetness ([3]; room temperature, three scientists)	Bitterness ([3]; intensity scale 0-9)	Licorice note ([3]; intensity scale 0-9)	Sweetness intensity rated by the judges [4]	Bitter ([4]; five scientists)	Linger ([4]; five scientists)	Sweet (quality) ([4]; five scientists)	Sweet onset ([4]; five scientists)
C=C1C[C@@]23CC[C@H]4[C@@](C)(CCC[C@@]4(C)C(=O)O[C@@H]4O[C@H](CO)[C@@H](O)[C@H](O)[C@H]4O[C@@H]4O[C@H](CO)[C@@H](O)[C@H](O)[C@H]4O)[C@@H]2CC[C@]1(O[C@@H]1O[C@H](CO)[C@@H](O)[C@H](O[C@@H]2O[C@H](CO)[C@@H](O)[C@H](O)[C@H]2O)[C@H]1O[C@@H]1O[C@H](CO)[C@@H](O)[C@H](O)[C@H]1O)C3 [Reb D, Rebaudioside D]	rounded, and syrupy and best	slight	quick	7% SE	2	–	–	–	–	–	–	–	–	–	–	–	–	–	–	–
C=C1C[C@@]23CC[C@H]4[C@@](C)(CCC[C@@]4(C)C(=O)O[C@@H]4O[C@H](CO)[C@@H](O)[C@H](O[C@@H]5O[C@H](CO)[C@@H](O)[C@H](O)[C@H]5O)[C@H]4O[C@@H]4O[C@@H](C)[C@H](O)[C@@H](O)[C@H]4O)[C@@H]2CC[C@]1(O[C@@H]1O[C@H](CO)[C@@H](O)[C@H](O[C@@H]2O[C@H](CO)[C@@H](O)[C@H](O)[C@H]2O)[C@H]1O[C@@H]1O[C@H](CO)[C@@H](O)[C@H](O)[C@H]1O)C3 [Reb N]	rounded, and syrupy, and best	moderate	quick	7.5% SE	1	–	–	–	–	–	–	–	–	–	–	–	–	–	–	–
C=C1C[C@@]23CC[C@H]4[C@@](C)(CCC[C@@]4(C)C(=O)O[C@@H]4O[C@H](CO)[C@@H](O)[C@H](O)[C@H]4O)[C@@H]2CC[C@]1(O[C@@H]1O[C@H](CO)[C@@H](O)[C@H](O[C@@H]2O[C@H](CO)[C@@H](O)[C@H](O)[C@H]2O)[C@H]1O[C@@H]1O[C@H](CO)[C@@H](O)[C@H](O)[C@H]1O)C3 [Reb A, Rebaudioside A]	spikey; also recorded: worst	moderate	slow	6% SE	5	extremely rapid	slight	strong	peaky	7%	7	moderate	6%	6	3	6.0	moderate	moderate	poor	slow
